The nature of the series: Plasma and liver pharmacokinetics of LNP formulated mRNAs. Format: in vivo. On the procedure: The plasma and liver pharmacokinetics of a lipid formulation (LNP) containing Compound 18 and an mRNA encoding a protein of interest was studied. The concentrations of Compound 18 in plasma after a single IV infusion are shown FIG. 28. The concentration of Compound 18 decreased quickly within about 12 hours.
The concentrations of Compound 18 in liver tissues after weekly dosing were measured at day 1, day 8, and day 15.

Turning to `CCCCCCCCCOC(=O)CCCCCCCN(CCO)CCCCCCCC(=O)OC(CCCCCCCC)CCCCCCCC` [Compound 18, Heptadecan-9-yl 8-((2-hydroxyethyl)(8-(nonyloxy)-8-oxooctyl)amino) octanoate], the “time within which the concentration of Compound 18 in plasma decreased quickly” value (single IV infusion of LNP containing Compound 18 and mRNA) was not above 12 h. The “concentration of Compound 18 in liver tissues” value (weekly dosing, measured at day 1, day 8, day 15, at four hours after each weekly dosing) was “decreased significantly”.

For the origin of these results see US20190167811A1, “LIPID COMPOSITIONS AND THEIR USES FOR INTRATUMORAL POLYNUCLEOTIDE DELIVERY” (ModernaTX, Inc., priority 2016, published 2019).
